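96-well plates; 48 h exposure; 5 concentrations. Endpoints by linear interpolation between flanking doses. Not reached: highest tested concentration assigned. GI50 = concentration required for 50% inhibition of growth. TGI: concentration producing complete growth inhibition.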
Legend:
Test in all cases: NCI tumour cell line growth inhibition, 48 h
SN12C renal = test system: SN12C renal
RPMI-8226 leukemia = test system: RPMI-8226 leukemia
SK-MEL-28 melanoma = test system: SK-MEL-28 melanoma
HCC-2998 colon = test system: HCC-2998 colon
CAKI-1 renal = test system: CAKI-1 renal
HOP-92 NSCLC = test system: HOP-92 NSCLC
EKVX NSCLC = test system: EKVX NSCLC
PC-3 prostate = test system: PC-3 prostate
MCF7 breast = test system: MCF7 breast
COLO 205 colon = test system: COLO 205 colon

O=C(O)C(CCc1ccccn1)c1ccccc1 (stereo unspecified)
TGI (SN12C renal): > 100 µM
TGI (RPMI-8226 leukemia): > 100 µM
TGI (SK-MEL-28 melanoma): > 100 µM
TGI (HCC-2998 colon): > 100 µM
TGI (CAKI-1 renal): > 100 µM
TGI (HOP-92 NSCLC): > 100 µM
TGI (EKVX NSCLC): > 100 µM
TGI (PC-3 prostate): > 100 µM
TGI (MCF7 breast): > 100 µM
TGI (COLO 205 colon): > 100 µM

CN(CCc1ccc(Cl)c(Cl)c1)[C@H]1CCCC[C@H]1N1CCCC1
TGI (SN12C renal): > 100 µM
TGI (RPMI-8226 leukemia): > 100 µM
TGI (SK-MEL-28 melanoma): > 100 µM
TGI (HCC-2998 colon): > 100 µM
TGI (CAKI-1 renal): > 100 µM
TGI (HOP-92 NSCLC): > 100 µM
TGI (EKVX NSCLC): > 100 µM
TGI (PC-3 prostate): > 100 µM
TGI (MCF7 breast): > 100 µM
TGI (COLO 205 colon): > 100 µM

Cc1cccc(C(C)(C)C)c1NC(=O)/C(Cc1nc2ccc([N+](=O)[O-])cc2[nH]c1=O)=N/NC(=O)C[N+](C)(C)C
TGI (SN12C renal): > 100 µM
TGI (RPMI-8226 leukemia): > 100 µM
TGI (SK-MEL-28 melanoma): > 100 µM
TGI (HCC-2998 colon): > 100 µM
TGI (CAKI-1 renal): > 100 µM
TGI (HOP-92 NSCLC): > 100 µM
TGI (EKVX NSCLC): > 100 µM
TGI (PC-3 prostate): > 100 µM
TGI (MCF7 breast): > 100 µM
TGI (COLO 205 colon): > 100 µM

CCCCC[C@@H]1OCO[C@@]2(C)/C=C(C)/C=C/C(=O)O[C@H]([C@@H](C)[C@@H](O)[C@H](C)[C@@]3(O)C[C@@H](O[C@H]4C[C@@H](O)[C@H](O)[C@@H](C)O4)[C@H](C)[C@@H](C)O3)[C@@H](OC)/C=C/C=C(\C)C[C@@H]1[C@@H]2O (stereo in doubt)
TGI (SN12C renal): 3.49 µM
TGI (RPMI-8226 leukemia): 50 µM
TGI (SK-MEL-28 melanoma): 1.68 µM
TGI (HCC-2998 colon): 0.745 µM
TGI (CAKI-1 renal): 2.69 µM
TGI (HOP-92 NSCLC): 0.0992 µM
TGI (EKVX NSCLC): 3.07 µM
TGI (PC-3 prostate): 1.64 µM
TGI (MCF7 breast): 3.32 µM
TGI (COLO 205 colon): 0.666 µM

CC(=O)O[C@H]1C#C/C=C\C#CC[C@@H]2C(=O)N(C(=O)OC(C)(C)C)[C@@H]12
TGI (SN12C renal): > 71.6 µM
TGI (RPMI-8226 leukemia): > 75.8 µM
TGI (SK-MEL-28 melanoma): > 100 µM
TGI (HCC-2998 colon): > 67.5 µM
TGI (CAKI-1 renal): > 54 µM
TGI (HOP-92 NSCLC): 96.8 µM
TGI (EKVX NSCLC): > 100 µM
TGI (PC-3 prostate): > 100 µM
TGI (MCF7 breast): > 100 µM
TGI (COLO 205 colon): > 100 µM

O=C1/C(=C/c2ccccc2)CCc2ccc(Cl)nc21
TGI (SN12C renal): 18.6 µM
TGI (RPMI-8226 leukemia): 7.88 µM
TGI (SK-MEL-28 melanoma): 39.6 µM
TGI (HCC-2998 colon): 48.4 µM
TGI (CAKI-1 renal): 10.3 µM
TGI (HOP-92 NSCLC): 38.8 µM
TGI (EKVX NSCLC): 38.3 µM
TGI (PC-3 prostate): 29.9 µM
TGI (MCF7 breast): 13.2 µM
TGI (COLO 205 colon): 40.5 µM

C/C(=N\NC(N)=O)C(CN1CCCCC1)C(c1ccccc1)c1c(O)c2ccccc2oc1=O (stereo unspecified)
TGI (SN12C renal): > 100 µM
TGI (RPMI-8226 leukemia): > 100 µM
TGI (SK-MEL-28 melanoma): > 100 µM
TGI (HCC-2998 colon): > 100 µM
TGI (CAKI-1 renal): > 100 µM
GI50 (HOP-92 NSCLC): 21.6 µM
TGI (HOP-92 NSCLC): > 100 µM
TGI (EKVX NSCLC): > 100 µM
GI50 (PC-3 prostate): 95.3 µM
TGI (PC-3 prostate): > 100 µM
GI50 (MCF7 breast): > 100 µM
TGI (MCF7 breast): > 100 µM
TGI (COLO 205 colon): > 100 µM

CC(CCC(=O)O)[C@H]1CCC2[C@H]3C(CC[C@@]21C)[C@@]1(C)CCC(O)C[C@H]1C[C@@H]3O (stereo partly specified)
TGI (SN12C renal): > 100 µM
TGI (RPMI-8226 leukemia): > 100 µM
TGI (SK-MEL-28 melanoma): > 100 µM
TGI (HCC-2998 colon): > 100 µM
TGI (CAKI-1 renal): > 100 µM
TGI (HOP-92 NSCLC): > 100 µM
TGI (EKVX NSCLC): > 100 µM
TGI (PC-3 prostate): > 100 µM
TGI (MCF7 breast): > 100 µM
TGI (COLO 205 colon): > 100 µM

O=C1NC(=S)N/C1=C/c1ccccc1O
TGI (SN12C renal): > 100 µM
TGI (RPMI-8226 leukemia): > 100 µM
TGI (SK-MEL-28 melanoma): > 100 µM
TGI (HCC-2998 colon): > 100 µM
TGI (CAKI-1 renal): > 100 µM
TGI (HOP-92 NSCLC): > 100 µM
TGI (EKVX NSCLC): > 100 µM
TGI (PC-3 prostate): > 100 µM
TGI (MCF7 breast): > 100 µM
TGI (COLO 205 colon): > 100 µM

C/C(=C/CO[Si](C)(C)C(C)(C)C)C(=O)N(C)c1ccccc1I
TGI (SN12C renal): 31.1 µM
TGI (RPMI-8226 leukemia): 77.9 µM
TGI (SK-MEL-28 melanoma): 35.7 µM
TGI (HCC-2998 colon): 28.3 µM
TGI (CAKI-1 renal): 29.9 µM
TGI (HOP-92 NSCLC): 22.5 µM
TGI (EKVX NSCLC): 29.1 µM
TGI (PC-3 prostate): 27 µM
TGI (MCF7 breast): 30.6 µM
TGI (COLO 205 colon): 33.8 µM

CC[C@]12C=CCN3CCC4(c5cc(N=Nc6ccccc6)c(OC)cc5N(C)[C@H]4[C@@](O)(C(=O)OC)[C@@H]1OC(C)=O)[C@@H]32 (stereo partly specified)
TGI (SN12C renal): 35.7 µM
TGI (RPMI-8226 leukemia): 59.3 µM
TGI (SK-MEL-28 melanoma): 36.8 µM
TGI (HCC-2998 colon): 36.3 µM
TGI (CAKI-1 renal): 69.8 µM
TGI (HOP-92 NSCLC): 30.2 µM
TGI (EKVX NSCLC): 34.2 µM
TGI (PC-3 prostate): 29.8 µM
TGI (MCF7 breast): 34.4 µM
TGI (COLO 205 colon): 77.1 µM

Cc1cc2ccccc2n1CC(=O)NCC(C)C
TGI (SN12C renal): > 100 µM
TGI (RPMI-8226 leukemia): > 100 µM
TGI (SK-MEL-28 melanoma): > 100 µM
TGI (HCC-2998 colon): > 100 µM
TGI (CAKI-1 renal): > 100 µM
TGI (HOP-92 NSCLC): > 100 µM
TGI (EKVX NSCLC): > 100 µM
TGI (PC-3 prostate): > 100 µM
TGI (MCF7 breast): > 100 µM
TGI (COLO 205 colon): > 100 µM

CC(=O)/C=C/C=C(\C)CC/C=C(\C)CC(C)C
TGI (SN12C renal): 96.2 µM
TGI (RPMI-8226 leukemia): 38.4 µM
TGI (SK-MEL-28 melanoma): > 100 µM
TGI (HCC-2998 colon): 34.7 µM
TGI (CAKI-1 renal): > 100 µM
TGI (HOP-92 NSCLC): 27.4 µM
TGI (EKVX NSCLC): > 100 µM
TGI (PC-3 prostate): > 100 µM
TGI (MCF7 breast): 57.9 µM
TGI (COLO 205 colon): 39 µM

O=C(/C=C/c1ccc(-c2ccccc2[N+](=O)[O-])o1)NCc1ccc(C(=O)NCCc2ccccc2)cc1
TGI (SN12C renal): > 100 µM
TGI (RPMI-8226 leukemia): > 100 µM
TGI (SK-MEL-28 melanoma): > 100 µM
TGI (HCC-2998 colon): > 100 µM
TGI (CAKI-1 renal): > 100 µM
TGI (HOP-92 NSCLC): > 100 µM
TGI (EKVX NSCLC): > 100 µM
TGI (PC-3 prostate): > 100 µM
TGI (MCF7 breast): > 100 µM
TGI (COLO 205 colon): > 100 µM

CC1(C)COC(c2cccc(C3=NC(C)(C)CO3)c2Br)=N1
TGI (RPMI-8226 leukemia): > 100 µM
TGI (SK-MEL-28 melanoma): > 100 µM
TGI (HCC-2998 colon): > 100 µM
TGI (CAKI-1 renal): > 100 µM
TGI (HOP-92 NSCLC): > 100 µM
TGI (EKVX NSCLC): > 100 µM
TGI (PC-3 prostate): > 100 µM
TGI (MCF7 breast): > 100 µM
TGI (COLO 205 colon): > 100 µM

CN=C(Nn1cnnc1)OC
TGI (RPMI-8226 leukemia): > 100 µM
TGI (SK-MEL-28 melanoma): > 100 µM
TGI (HCC-2998 colon): > 100 µM
TGI (CAKI-1 renal): > 100 µM
TGI (HOP-92 NSCLC): > 100 µM
TGI (EKVX NSCLC): > 100 µM
TGI (PC-3 prostate): > 100 µM
TGI (MCF7 breast): > 100 µM
TGI (COLO 205 colon): > 100 µM

Source: PubChem BioAssay (NCI)
